{"source": "patent US8518912B2", "about": "“Phosphonic acid derivates and their use as P2Y12 receptor antagonists” (Actelion Pharmaceuticals Ltd., priority 2008, dated 2013)", "data": [{"target": "T1, human P2Y12 receptor (Homo sapiens, UniProt Q9H244)", "T1 construct": "expressed in transfected cells; host or cells: Chinese Hamster Ovary (CHO) cells", "T1 sequence (Q9H244 whole entry)": "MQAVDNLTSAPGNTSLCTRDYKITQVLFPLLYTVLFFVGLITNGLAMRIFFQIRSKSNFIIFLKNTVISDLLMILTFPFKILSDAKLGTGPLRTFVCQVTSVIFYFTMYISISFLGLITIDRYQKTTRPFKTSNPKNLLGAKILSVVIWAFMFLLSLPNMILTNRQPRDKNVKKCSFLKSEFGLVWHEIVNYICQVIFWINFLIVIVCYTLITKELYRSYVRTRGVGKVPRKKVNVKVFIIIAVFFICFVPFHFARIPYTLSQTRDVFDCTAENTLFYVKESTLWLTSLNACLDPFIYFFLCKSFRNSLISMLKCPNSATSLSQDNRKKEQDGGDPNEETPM", "experiment": "P2Y12 receptor binding assay", "settings": "CHO cells with recombinant human P2Y12 receptor; tritium-labeled 2-methyl-S-ADP; 2 hours at RT", "method": "Chinese Hamster Ovary (CHO) cells with recombinant expression of the human P2Y12 receptor were cultured in 24 well cell-culture plates. Cells were washed three times with binding buffer (50 mM Tris pH 7.4, 100 mM NaCl, […], 0.5% BSA). The cells were then incubated with 0.5 ml per well binding buffer containing tritium-labeled 2-methyl-thio-adenosine 5′-diphosphate (2-methyl-S-ADP) (between 100,000 and 300,000 dpm per well) and various concentrations of test compounds. After incubation at RT for 2 hours, cells were washed three times with binding buffer. Then, cells were solubilized by addition of 0.5 ml solubilization buffer (SDS, NaOH, EDTA). The content of each well was then transferred into beta-counter vials and 2.0 ml of Ultima Gold Scintillation liquid was added.", "units": {"IC50": "nM"}, "values": [{"smiles": "CCOC(=O)N1CCN(C(=O)[C@H](CP(=O)(OCOC(C)=O)OCOC(C)=O)NC(=O)c2cc(N3CC[C@H](OC)C3)nc(-c3ccccc3)n2)CC1", "note": "[Example 120, 4-((R)-3-[Bis-(acetoxy-methoxy)-phosphoryl]-2-{[6-((S)-3-methoxy-pyrrolidin-1-yl)-2-phenyl-pyrimidine-4-carbonyl]-amino}-propionyl)-piperazine-1-carboxylic acid ethyl ester]", "IC50": 7}, {"smiles": "CCCC(=O)OCOP(=O)(OCOC(=O)CCC)c1ccc(C[C@H](NC(=O)c2cc(N3CC[C@H](OC)C3)nc(-c3ccccc3)n2)C(=O)N2CCN(C(=O)OCC)CC2)cc1", "note": "[Example 124, 4-((S)-3-[4-(Bis-(butyryloxy-methoxy)-phosphoryl)-phenyl]-2-{[6-((S)-3-methoxy-pyrrolidin-1-yl)-2-phenyl-pyrimidine-4-carbonyl]-amino}-propionyl)-piperazine-1-carboxylic acid ethyl ester]", "IC50": 36}]}, {"system": "ADP induced platelet aggregation", "experiment": "Light transmission platelet aggregation assay", "format": "cell-based", "settings": "human platelet-rich plasma; ADP at 1-5 μM final concentration; 2 minutes preincubation at 37° C.", "method": "After obtaining informed consent, blood was obtained by vein puncture from healthy volunteers using a thrombin inhibitor as the anticoagulant. Platelet-rich plasma (PRP) was removed after centrifugation at 20° C. for 10 minutes at 200 g and allowed to equilibrate at 37° C. Part of the blood was centrifuged for 10 minutes at 5000 g to yield platelet poor plasma (PPP).\nLight transmission platelet aggregation was carried out according to the method of Born & Cross (G. V. R. Born and M. J. Cross, J. Physiol. (1963), 168, 178-195) using a Chronolog lumiaggregometer with stirring (1000 rpm) at 37° C. PRP was placed into the cuvette and allowed to equilibrate at 37° C. for two minutes. In a first phase, the ADP concentration to give optimal extent of aggregation was determined for the PRP of each donor. In a second phase, PRP was incubated with inhibitors for 2 minutes at 37° C. prior to the addition of the agonist ADP at 1-5 μM final concentration. The change in light transmission, indicative of ongoing aggregation, was monitored during 5 minutes. The extent of platelet aggregation was calculated relative to light absorbance of PRP (not aggregated) and PPP (full aggregation).", "units": {"IC50": "nM"}, "values": [{"smiles": "CCOC(=O)N1CCN(C(=O)[C@H](CP(=O)(O)O)NC(=O)c2cc(N3CC[C@H](OC)C3)nc(-c3ccccc3)n2)CC1", "note": "[Example 1, 4-((R)-2-{[6-((S)-3-methoxy-pyrrolidin-1-yl)-2-phenyl-pyrimidine-4-carbonyl]-amino}-3-phosphono-propionyl)-piperazine-1-carboxylic acid ethyl ester]", "IC50": 10}, {"smiles": "CCCCOC(=O)N1CCN(C(=O)[C@H](CP(=O)(O)O)NC(=O)c2cc(N3CC[C@H](OC)C3)nc(-c3ccccc3)n2)CC1", "note": "[Example 2, 4-((R)-2-{[6-((S)-3-methoxy-pyrrolidin-1-yl)-2-phenyl-pyrimidine-4-carbonyl]-amino}-3-phosphono-propionyl)-piperazine-1-carboxylic acid butyl ester]", "IC50": 8}, {"smiles": "CCOC(=O)N1CCN(C(=O)[C@H](CCP(=O)(O)O)NC(=O)c2cc(N3CC[C@H](OC)C3)nc(-c3ccccc3)n2)CC1", "note": "[Example 4, 4-((S)-2-{[6-((S)-3-methoxy-pyrrolidin-1-yl)-2-phenyl-pyrimidine-4-carbonyl]-amino}-4-phosphono-butyryl)-piperazine-1-carboxylic acid ethyl ester]", "IC50": 21}, {"smiles": "CCCCOC(=O)N1CCN(C(=O)[C@H](CCP(=O)(O)O)NC(=O)c2cc(N3CC[C@H](OC)C3)nc(-c3ccccc3)n2)CC1", "note": "[Example 5, 4-((S)-2-{[6-((S)-3-methoxy-pyrrolidin-1-yl)-2-phenyl-pyrimidine-4-carbonyl]-amino}-4-phosphono-butyryl)-piperazine-1-carboxylic acid butyl ester]", "IC50": 1}, {"smiles": "CCOC(=O)N1CCN(C(=O)[C@H](Cc2ccc(P(=O)(O)O)cc2)NC(=O)c2cc(N3CC[C@H](OC)C3)nc(-c3ccccc3)n2)CC1", "note": "[Example 59, 4-[(S)-2-{[6-((S)-3-Methoxy-pyrrolidin-1-yl)-2-phenyl-pyrimidine-4-carbonyl]-amino}-3-(4-phosphono-phenyl)-propionyl]-piperazine-1-carboxylic acid ethyl ester]", "IC50": 4}, {"smiles": "CCCCOC(=O)N1CCN(C(=O)[C@H](CCC(=O)O)NC(=O)c2cc(N3CC[C@H](OC)C3)nc(-c3ccccc3)n2)CC1", "note": "[reference compound]", "IC50": 21}, {"smiles": "CCOC(=O)N1CCN(C(=O)[C@H](CCC(=O)O)NC(=O)c2cc(N3CC[C@H](OC)C3)nc(-c3ccccc3)n2)CC1", "note": "[reference compound]", "IC50": 32}, {"smiles": "CCCCOC(=O)N1CCN(C(=O)[C@H](CC(=O)O)NC(=O)c2cc(N3CC[C@H](OC)C3)nc(-c3ccccc3)n2)CC1", "note": "[reference compound]", "IC50": 91}, {"smiles": "CCOC(=O)N1CCN(C(=O)[C@H](Cc2ccc(C(=O)O)cc2)NC(=O)c2cc(N3CC[C@H](OC)C3)nc(-c3ccccc3)n2)CC1", "note": "[reference compound]", "IC50": 226}, {"smiles": "CCOC(=O)N1CCN(C(=O)[C@H](CC(=O)O)NC(=O)c2cc(N3CC[C@H](OC)C3)nc(-c3ccccc3)n2)CC1", "note": "[reference compound]", "IC50": 138}]}]}
